# Results reported in PubChem BioAssay AID2060326 (Molecular Pharmacology Branch, DTP, NCI, 2025).
# pIC50: −log10 of the molar value.
# Test system: MDA-MB-468 multi-cell spheroids, viability
# Assay: Anticancer human tumor MDA-MB-468 cell line growth inhibition [IpAb];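 note: spheroids exposed to agents for seven days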;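 for viability, T/C: 100% = DMSO vehicle control viability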
# Conditions: for pIC50: curve of first compound; for viability, T/C: stronger effect = lower value
# Method in brief: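 Combinations with ipatasertib or abemaciclib were tested on tumour spheroids holding HUVEC (25%) and MSC (15%) alongside 60% malignant cells. Top concentration was at or near clinical Cmax (10 microM if undefined), descending in half-log steps.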
# [1] = second compound 0.1 µM, first compound 0.0316 µM
# [2] = second compound 0.1 µM, first compound 0.1 µM
# [3] = second compound 0.1 µM, first compound 0.316 µM
# [4] = second compound 0.1 µM, first compound 1 µM
# [5] = second compound 0.1 µM, first compound 3.16 µM
# [6] = second compound 0.1 µM, first compound 10 µM
# [7] = second compound 0.316 µM, first compound 0.0316 µM
# [8] = second compound 0.316 µM, first compound 0.1 µM
# [9] = second compound 0.316 µM, first compound 0.316 µM
# [10] = second compound 0.316 µM, first compound 1 µM
# [11] = second compound 0.316 µM, first compound 3.16 µM
# [12] = second compound 0.316 µM, first compound 10 µM
# [13] = second compound 1 µM, first compound 0.0316 µM
# [14] = second compound 1 µM, first compound 0.1 µM
# [15] = second compound 1 µM, first compound 0.316 µM
# [16] = second compound 1 µM, first compound 1 µM
# [17] = second compound 1 µM, first compound 3.16 µM
# [18] = second compound 1 µM, first compound 10 µM
# [19] = second compound 3.16 µM, first compound 0.0316 µM
# [20] = second compound 3.16 µM, first compound 0.1 µM
# [21] = second compound 3.16 µM, first compound 0.316 µM
# [22] = second compound 3.16 µM, first compound 1 µM
# [23] = second compound 3.16 µM, first compound 3.16 µM
# [24] = second compound 3.16 µM, first compound 10 µM
# [25] = second compound 10 µM, first compound 0.0316 µM
# [26] = second compound 10 µM, first compound 0.1 µM
# [27] = second compound 10 µM, first compound 0.316 µM
# [28] = second compound 10 µM, first compound 1 µM
# [29] = second compound 10 µM, first compound 3.16 µM
# [30] = second compound 10 µM, first compound 10 µM
compound,measurement,setting,value
C=CC(=O)N1CCN(c2nc(=O)n(-c3c(C)ccnc3C(C)C)c3nc(-c4c(O)cccc4F)c(F)cc23)C(C)C1 (stereo not given) + CC(C)NCC(C(=O)N1CCN(c2ncnc3c2C(C)CC3O)CC1)c1ccc(Cl)cc1,pIC50,second compound 0.1 µM,5.15
same,pIC50,second compound 0.316 µM,5.31
same,pIC50,second compound 1 µM,5.38
same,pIC50,second compound 3.16 µM,> 7.50
same,pIC50,second compound 10 µM,> 7.50
same,"viability, T/C",[1],115%
same,"viability, T/C",[2],123%
same,"viability, T/C",[3],118%
same,"viability, T/C",[4],105%
same,"viability, T/C",[5],78.2%
same,"viability, T/C",[6],37.8%
same,"viability, T/C",[7],94.4%
same,"viability, T/C",[8],69.8%
same,"viability, T/C",[9],68.4%
same,"viability, T/C",[10],71.6%
same,"viability, T/C",[11],67.3%
same,"viability, T/C",[12],27.4%
same,"viability, T/C",[13],64.5%
same,"viability, T/C",[14],55.9%
same,"viability, T/C",[15],62.4%
same,"viability, T/C",[16],57.6%
same,"viability, T/C",[17],59.8%
same,"viability, T/C",[18],19.2%
same,"viability, T/C",[19],42.3%
same,"viability, T/C",[20],41.2%
same,"viability, T/C",[21],44.5%
same,"viability, T/C",[22],39.6%
same,"viability, T/C",[23],29.6%
same,"viability, T/C",[24],8.37%
same,"viability, T/C",[25],19.5%
same,"viability, T/C",[26],22.1%
same,"viability, T/C",[27],20.5%
same,"viability, T/C",[28],19.3%
same,"viability, T/C",[29],13.8%
same,"viability, T/C",[30],5.04%
CC(C)(C)c1cnc(CSc2cnc(NC(=O)C3CCNCC3)s2)o1 + CC(C)NCC(C(=O)N1CCN(c2ncnc3c2C(C)CC3O)CC1)c1ccc(Cl)cc1,pIC50,second compound 0.1 µM,7.16
same,pIC50,second compound 0.316 µM,7.34
same,pIC50,second compound 1 µM,7.43
same,pIC50,second compound 3.16 µM,> 8.02
same,pIC50,second compound 10 µM,> 8.02
same,"viability, T/C","second compound 0.1 µM, first compound 0.00949 µM",110%
same,"viability, T/C","second compound 0.1 µM, first compound 0.03 µM",91.4%
same,"viability, T/C","second compound 0.1 µM, first compound 0.0949 µM",35%
same,"viability, T/C","second compound 0.1 µM, first compound 0.3 µM",0.3%
same,"viability, T/C","second compound 0.1 µM, first compound 0.949 µM",0.19%
same,"viability, T/C","second compound 0.1 µM, first compound 3 µM",0.32%
same,"viability, T/C","second compound 0.316 µM, first compound 0.00949 µM",73.9%
same,"viability, T/C","second compound 0.316 µM, first compound 0.03 µM",67.4%
same,"viability, T/C","second compound 0.316 µM, first compound 0.0949 µM",18.8%
same,"viability, T/C","second compound 0.316 µM, first compound 0.3 µM",0.27%
same,"viability, T/C","second compound 0.316 µM, first compound 0.949 µM",0.15%
same,"viability, T/C","second compound 0.316 µM, first compound 3 µM",0.27%
same,"viability, T/C","second compound 1 µM, first compound 0.00949 µM",62.2%
same,"viability, T/C","second compound 1 µM, first compound 0.03 µM",58.7%
same,"viability, T/C","second compound 1 µM, first compound 0.0949 µM",10%
same,"viability, T/C","second compound 1 µM, first compound 0.3 µM",0.2%
same,"viability, T/C","second compound 1 µM, first compound 0.949 µM",0.14%
same,"viability, T/C","second compound 1 µM, first compound 3 µM",0.24%
same,"viability, T/C","second compound 3.16 µM, first compound 0.00949 µM",41.5%
same,"viability, T/C","second compound 3.16 µM, first compound 0.03 µM",35.4%
same,"viability, T/C","second compound 3.16 µM, first compound 0.0949 µM",11.5%
same,"viability, T/C","second compound 3.16 µM, first compound 0.3 µM",0.23%
same,"viability, T/C","second compound 3.16 µM, first compound 0.949 µM",0.13%
same,"viability, T/C","second compound 3.16 µM, first compound 3 µM",0.31%
same,"viability, T/C","second compound 10 µM, first compound 0.00949 µM",21.3%
same,"viability, T/C","second compound 10 µM, first compound 0.03 µM",18.1%
same,"viability, T/C","second compound 10 µM, first compound 0.0949 µM",1.19%
same,"viability, T/C","second compound 10 µM, first compound 0.3 µM",0.32%
same,"viability, T/C","second compound 10 µM, first compound 0.949 µM",0.24%
same,"viability, T/C","second compound 10 µM, first compound 3 µM",0.65%
Cn1nccc1Nc1nccc(-c2ccn(C(CO)c3ccc(Cl)c(F)c3)c(=O)c2)n1 (stereo not given) + CC(C)NCC(C(=O)N1CCN(c2ncnc3c2C(C)CC3O)CC1)c1ccc(Cl)cc1,pIC50,second compound 0.1 µM,5.48
same,pIC50,second compound 0.316 µM,5.87
same,pIC50,second compound 1 µM,6.38
same,pIC50,second compound 3.16 µM,> 7.50
same,pIC50,second compound 10 µM,> 7.50
same,"viability, T/C",[1],90.7%
same,"viability, T/C",[2],88.3%
same,"viability, T/C",[3],85%
same,"viability, T/C",[4],65.3%
same,"viability, T/C",[5],57.3%
same,"viability, T/C",[6],2.08%
same,"viability, T/C",[7],66%
same,"viability, T/C",[8],54.9%
same,"viability, T/C",[9],62%
same,"viability, T/C",[10],46.3%
same,"viability, T/C",[11],44.3%
same,"viability, T/C",[12],0.8%
same,"viability, T/C",[13],57.9%
same,"viability, T/C",[14],56%
same,"viability, T/C",[15],51.3%
same,"viability, T/C",[16],42%
same,"viability, T/C",[17],16.4%
same,"viability, T/C",[18],0.2%
same,"viability, T/C",[19],38.6%
same,"viability, T/C",[20],38.9%
same,"viability, T/C",[21],37%
same,"viability, T/C",[22],23.4%
same,"viability, T/C",[23],5.84%
same,"viability, T/C",[24],0.17%
same,"viability, T/C",[25],18.8%
same,"viability, T/C",[26],15.8%
same,"viability, T/C",[27],19%
same,"viability, T/C",[28],9.63%
same,"viability, T/C",[29],1.96%
same,"viability, T/C",[30],0.26%
